According to patent US8742110B2, “Spiroxazolidinone compounds” (Merck Sharp & Dohme Corp., priority 2010, dated 2014):
Counter-ions that a name gives are not always drawn.

What follows are compounds tested against SSTR5 (Homo sapiens (Human), UniProt P35346) (assay: SSTR5 binding assay). Settings: CHO-K1 membranes expressing cloned human SSTR5.
Chain of SSTR5 (P35346 whole entry): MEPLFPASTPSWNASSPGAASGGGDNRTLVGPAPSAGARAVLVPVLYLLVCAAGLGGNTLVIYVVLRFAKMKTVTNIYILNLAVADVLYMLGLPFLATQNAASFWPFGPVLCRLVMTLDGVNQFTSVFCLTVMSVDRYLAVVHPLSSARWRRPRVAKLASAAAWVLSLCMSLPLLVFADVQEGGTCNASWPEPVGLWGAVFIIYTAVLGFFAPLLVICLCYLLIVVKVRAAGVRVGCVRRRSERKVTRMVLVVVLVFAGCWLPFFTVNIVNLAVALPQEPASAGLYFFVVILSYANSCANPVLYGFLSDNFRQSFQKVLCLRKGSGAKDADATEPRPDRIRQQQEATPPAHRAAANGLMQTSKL
Method in brief: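 Competition binding on membranes from CHO-K1 cells stably expressing cloned human receptor, using radiolabeled somatostatin in 50 mM Tris-HCl pH 7.8 with EGTA, MgCl2 and protease inhibitors. Unlabeled compounds tested from 0.01 nM to 10,000 nM.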
With `CC1(C)CCOc2c(Cl)cc(CN3CCC4(CC3)CN(c3ccc(C(=O)O)cc3)C(=O)O4)cc21` [Example 5-15, 4-{8-[(8-Chloro-4,4-dimethyl-3,4-dihydro-2H-chromen-6-yl)methyl]-2-oxo-1-oxa-3,8-diazaspiro[4.5]dec-3-yl}benzoic acid, TFA salt] the IC50 was 1.25 nM. Compound `COc1ccc(-c2nc(C(C)(C)C)sc2CN2CCC3(CC2)CN(c2ccc(C(=O)O)cc2)C(=O)O3)cc1` [Example 6-29, 4-(8-{[2-tert-Butyl-4-(4-methoxyphenyl)-1,3-thiazol-5-yl]methyl}-2-oxo-1-oxa-3,8-diazaspiro[4.5]dec-3-yl)benzoic acid, TFA salt] has an IC50 of 0.705 nM. Compound `COc1ccc2c(CN3CCC4(CC3)CN(c3ccc(C(=O)O)cc3)C(=O)O4)nn(C3CC3)c2c1` [Example 6-12, 4-{8-[(1-Cyclopropyl-6-methoxy-1H-indazol-3-yl)methyl]-2-oxo-1-oxa-3,8-diazaspiro[4.5]dec-3-yl}benzoic acid, TFA salt] has an IC50 of 216 nM. `CCCn1nc(CN2CCC3(CC2)CN(c2ccc(C(=O)O)cc2)C(=O)O3)c2ccc(OC)cc21` [Example 6-3, 4-{8-[(6-Methoxy-1-propyl-1H-indazol-3-yl)methyl]-2-oxo-1-oxa-3,8-diazaspiro[4.5]dec-3-yl}benzoic acid, TFA salt] showed an IC50 of 156 nM. For `COc1cc(CN2CCC3(CC2)CN(c2ccc(C(=O)O)cc2)C(=O)O3)cc2c(OC)cccc12` [Example 5-6, 4-{8-[(4,8-Dimethoxynaphthalen-2-yl)methyl]-2-oxo-1-oxa-3,8-diazaspiro[4.5]dec-3-yl}benzoic acid, TFA salt], the IC50 was 0.172 nM. Work on `CC(C)(C)n1cc(CN2CCC3(CC2)CN(c2ccc(C(=O)O)c(F)c2)C(=O)O3)c(-c2ccc(F)c(F)c2F)n1` [Example 1-42, 4-(8-{[1-tert-Butyl-3-(2,3,4-trifluorophenyl)-1H-pyrazol-4-yl]methyl}-2-oxo-1-oxa-3,8-diazaspiro[4.5]dec-3-yl)-2-fluorobenzoic acid, TFA salt] yielded an IC50 of 4.68 nM. Work on `O=C(O)c1ccc(N2CC3(CCN(Cc4cn(CC(F)(F)F)nc4-c4ccc(F)c(F)c4F)CC3)OC2=O)cc1` [Example 1-41, 4-(2-Oxo-8-{[1-(2,2,2-trifluoroethyl)-3-(2,3,4-trifluorophenyl)-1H-pyrazol-4-yl]methyl}-1-oxa-3,8-diazaspiro[4.5]dec-3-yl)benzoic acid, TFA salt] yielded an IC50 of 10.4 nM. `CC(C)n1nc(CN2CCC3(CC2)CN(c2ccc(C(=O)O)cc2)C(=O)O3)c2cc(OCc3ccccc3)ccc21` [Example 6-14, 4-(8-{[5-(Benzyloxy)-1-(propan-2-yl)-1H-indazol-3-yl]methyl}-2-oxo-1-oxa-3,8-diazaspiro[4.5]dec-3-yl)benzoic acid, TFA salt] showed an IC50 of 0.26 nM. Compound `COc1ccc2c(CN3CCC4(CC3)CN(c3ccc(C(=O)O)cc3)C(=O)O4)nn(CC(C)(C)C)c2c1` [Example 6-11, 4-(8-{[1-(2,2-Dimethylpropyl)-6-methoxy-1H-indazol-3-yl]methyl}-2-oxo-1-oxa-3,8-diazaspiro[4.5]dec-3-yl)benzoic acid, TFA salt] has an IC50 of 410 nM. `CC1(C)CCOc2c(F)cc(CN3CCC4(CC3)CN(c3ccc(C(=O)O)cc3)C(=O)O4)cc21` [Example 5-14, 4-{8-[(8-Fluoro-4,4-dimethyl-3,4-dihydro-2H-chromen-6-yl)methyl]-2-oxo-1-oxa-3,8-diazaspiro[4.5]dec-3-yl}benzoic acid, TFA salt] gave an IC50 of 3.62 nM. `CC(C)Oc1ccc(-c2cc(F)c(F)cc2F)c(CN2CCC3(CC2)CN(c2ccc(C(=O)O)cc2)C(=O)O3)c1` [Example 4-16, 4-(2-Oxo-8-{[2′,4′,5′-trifluoro-4-(propan-2-yloxy)biphenyl-2-yl]methyl}-1-oxa-3,8-diazaspiro[4.5]dec-3-yl)benzoic acid, TFA salt] showed an IC50 of 0.272 nM. Compound `CC(C)n1nc(CN2CCC3(CC2)CN(c2ccc(C(=O)O)cc2)C(=O)O3)c2ccc(C(N)=O)cc21` [Example 6-8, 4-(8-{[6-Carbamoyl-1-(propan-2-yl)-1H-indazol-3-yl]methyl}-2-oxo-1-oxa-3,8-diazaspiro[4.5]dec-3-yl)benzoic acid, TFA salt] has an IC50 of 1200 nM. For `CCOc1cc(CN2CCC3(CC2)CN(c2ccc(C(=O)O)cc2C)C(=O)O3)c(-c2ccc(F)c(F)c2F)cc1C` [Example 4-8, 4-{8-[(4-Ethoxy-2′,3′,4′-trifluoro-5-methylbiphenyl-2-yl)methyl]-2-oxo-1-oxa-3,8-diazaspiro[4.5]dec-3-yl}-3-methylbenzoic acid, TFA salt], the IC50 was 0.474 nM. `CCOc1cc(CN2CCC3(CC2)CN(c2ccc(C(=O)O)cc2Cl)C(=O)O3)c(-c2ccc(F)c(F)c2F)cc1C` [Example 4-22, 3-Chloro-4-{8-[(4-ethoxy-2′,3′,4′-trifluoro-5-methylbiphenyl-2-yl)methyl]-2-oxo-1-oxa-3,8-diazaspiro[4.5]dec-3-yl}benzoic acid, TFA salt] showed an IC50 of 0.468 nM. For `CCOc1cc(CN2CCC3(CC2)CN(c2ccc(C(=O)O)cc2F)C(=O)O3)cc(OCC)c1-c1ccc(F)cc1` [Example 3-21, 4-{8-[(2,6-Diethoxy-4′-fluorobiphenyl-4-yl)methyl]-2-oxo-1-oxa-3,8-diazaspiro[4.5]dec-3-yl}-3-fluorobenzoic acid, TFA salt], the IC50 was 0.437 nM. `CC(C)n1cc(CN2CCC3(CC2)CN(c2ccc(C(=O)O)cc2)C(=O)O3)c2cc(Br)ccc21` [Example 6-25, 4-(8-{[5-Bromo-1-(propan-2-yl)-1H-indol-3-yl]methyl}-2-oxo-1-oxa-3,8-diazaspiro[4.5]dec-3-yl)benzoic acid, TFA salt] gave an IC50 of 0.55 nM. `Cc1nc(-c2ccccc2)c(CN2CCC3(CC2)CN(c2ccc(C(=O)O)cc2)C(=O)O3)s1` [Example 6-33, 4-{8-[(2-Methyl-4-phenyl-1,3-thiazol-5-yl)methyl]-2-oxo-1-oxa-3,8-diazaspiro[4.5]dec-3-yl}benzoic acid, TFA salt] showed an IC50 of 153 nM. `O=C(O)c1ccc(N2CC3(CCN(Cc4cn(-c5ccccc5)nc4-c4ccccc4)CC3)OC2=O)cc1` [Example 1-3, 4-{8-[(1,3-Diphenyl-1H-pyrazol-4-yl)methyl]-2-oxo-1-oxa-3,8-diazaspiro[4.5]dec-3-yl}benzoic acid, TFA salt] showed an IC50 of 2.81 nM. With `CCOc1ccc(-c2cc(F)c(F)cc2F)c(CN2CCC3(CC2)CN(c2ccc(C(=O)O)cc2)C(=O)O3)c1` [Example 4-1, 4-{8-[(4-Ethoxy-2′,4′,5′-trifluorobiphenyl-2-yl)methyl]-2-oxo-1-oxa-3,8-diazaspiro[4.5]dec-3-yl}benzoic acid, TFA salt] the IC50 was 0.793 nM. With `CC(C)(C)n1cc(CN2CCC3(CC2)CN(c2ccc(C(=O)O)cn2)C(=O)O3)c(-c2ccc(F)c(F)c2F)n1` [Example 1-43, 6-(8-{[1-tert-Butyl-3-(2,3,4-trifluorophenyl)-1H-pyrazol-4-yl]methyl}-2-oxo-1-oxa-3,8-diazaspiro[4.5]dec-3-yl)pyridine-3-carboxylic acid, TFA salt] the IC50 was 2.88 nM. `COc1c(-c2cn(C(C)C)nc2CN2CCC3(CC2)CN(c2ccc(C(=O)O)cc2)C(=O)O3)ccc(F)c1F` [Example 2-5, 4-(8-{[4-(3,4-Difluoro-2-methoxyphenyl)-1-(propan-2-yl)-1H-pyrazol-3-yl]methyl}-2-oxo-1-oxa-3,8-diazaspiro[4.5]dec-3-yl)benzoic acid, TFA salt] was tested, and the IC50 was 191 nM. `CC(C)(C)n1cc(CN2CCC3(CC2)CN(c2ccc(C(=O)O)cc2)C(=O)O3)c(-c2cc(F)c(Cl)cc2F)n1` [Example 1-31, 4-(8-{[1-tert-Butyl-3-(4-chloro-2,5-difluorophenyl)-1H-pyrazol-4-yl]methyl}-2-oxo-1-oxa-3,8-diazaspiro[4.5]dec-3-yl)benzoic acid, TFA salt] gave an IC50 of 2.09 nM. `O=C(O)c1ccc(N2CC3(CCN(Cc4cnc(-c5ccccc5)nc4-c4ccc(F)cc4)CC3)OC2=O)cc1` [Example 4-15, 4-(8-{[4-(4-Fluorophenyl)-2-phenylpyrimidin-5-yl]methyl}-2-oxo-1-oxa-3,8-diazaspiro[4.5]dec-3-yl)benzoic acid, TFA salt] gave an IC50 of 218 nM. For `CCOc1cc(CN2CCC3(CC2)CN(c2ccc(C(=O)O)cc2)C(=O)O3)c(-c2ccc(F)c(F)c2F)cc1C` [Example 4-7, 4-{8-[(4-Ethoxy-2′,3′,4′-trifluoro-5-methylbiphenyl-2-yl)methyl]-2-oxo-1-oxa-3,8-diazaspiro[4.5]dec-3-yl}benzoic acid, TFA salt], the IC50 was 0.409 nM. With `O=C(O)c1ccc(N2CC3(CCN(Cc4nc(-c5ccccc5)oc4-c4ccccc4)CC3)OC2=O)cc1` [Example 6-34, 4-{8-[(2,5-Diphenyl-1,3-oxazol-4-yl)methyl]-2-oxo-1-oxa-3,8-diazaspiro[4.5]dec-3-yl}benzoic acid, TFA salt] the IC50 was 86 nM. `O=C(O)c1ccc(N2CC3(CCN(Cc4cc(C(F)(F)F)ccc4-c4ccc(F)c(F)c4F)CC3)OC2=O)cc1` [Example 4-9, 4-(2-Oxo-8-{[2′,3′,4′-trifluoro-4-(trifluoromethyl)biphenyl-2-yl]methyl}-1-oxa-3,8-diazaspiro[4.5]dec-3-yl)benzoic acid, TFA salt] showed an IC50 of 0.439 nM. Work on `COc1cccc(-c2nn(-c3ccccc3)cc2CN2CCC3(CC2)CN(c2ccc(C(=O)O)cc2)C(=O)O3)c1` [Example 1-22, 4-(8-{[3-(3-Methoxyphenyl)-1-phenyl-1H-pyrazol-4-yl]methyl}-2-oxo-1-oxa-3,8-diazaspiro[4.5]dec-3-yl)benzoic acid, TFA salt] yielded an IC50 of 4.87 nM. `COc1ccc2c(CN3CCC4(CC3)CN(c3ccc(C(=O)O)cc3)C(=O)O4)cn(C(C)C)c2c1` [Example 6-16, 4-(8-{[6-Methoxy-1-(propan-2-yl)-1H-indol-3-yl]methyl}-2-oxo-1-oxa-3,8-diazaspiro[4.5]dec-3-yl)benzoic acid, TFA salt] showed an IC50 of 0.851 nM.

Same assay, conditions: CHO-K1 membranes expressing cloned human SSTR5; TFA salt
Work on `COc1ccccc1-c1nn(C(C)(C)C)cc1CN1CCC2(CC1)CN(c1ccc(C(=O)O)cc1)C(=O)O2` [Example 1-14, 4-(8-{[1-tert-butyl-3-(2-Methoxyphenyl)-1H-pyrazol-4-yl]methyl}-2-oxo-1-oxa-3,8-diazaspiro[4.5]dec-3-yl)benzoic acid, TFA salt] yielded an IC50 of 4.7 nM.
